Assay results reported in paper PMC12420824, “Discovery of a selective alpha-kinase 1 inhibitor for the rare genetic disease ROSAH syndrome” (Nature Communications, 2025).
“And” between values parts separate entries of the source, which are not always exact repeats. Equal entries are not always repeated.

What was measured:
TAOK2/TAO1 = molecular target: T1, TAOK2/TAO1 (Homo sapiens, UniProt Q9UL54); experiment: HotSpot kinase assay; conditions: for IC50: ATP 10 µM
T1 sequence (Q9UL54 1-1235): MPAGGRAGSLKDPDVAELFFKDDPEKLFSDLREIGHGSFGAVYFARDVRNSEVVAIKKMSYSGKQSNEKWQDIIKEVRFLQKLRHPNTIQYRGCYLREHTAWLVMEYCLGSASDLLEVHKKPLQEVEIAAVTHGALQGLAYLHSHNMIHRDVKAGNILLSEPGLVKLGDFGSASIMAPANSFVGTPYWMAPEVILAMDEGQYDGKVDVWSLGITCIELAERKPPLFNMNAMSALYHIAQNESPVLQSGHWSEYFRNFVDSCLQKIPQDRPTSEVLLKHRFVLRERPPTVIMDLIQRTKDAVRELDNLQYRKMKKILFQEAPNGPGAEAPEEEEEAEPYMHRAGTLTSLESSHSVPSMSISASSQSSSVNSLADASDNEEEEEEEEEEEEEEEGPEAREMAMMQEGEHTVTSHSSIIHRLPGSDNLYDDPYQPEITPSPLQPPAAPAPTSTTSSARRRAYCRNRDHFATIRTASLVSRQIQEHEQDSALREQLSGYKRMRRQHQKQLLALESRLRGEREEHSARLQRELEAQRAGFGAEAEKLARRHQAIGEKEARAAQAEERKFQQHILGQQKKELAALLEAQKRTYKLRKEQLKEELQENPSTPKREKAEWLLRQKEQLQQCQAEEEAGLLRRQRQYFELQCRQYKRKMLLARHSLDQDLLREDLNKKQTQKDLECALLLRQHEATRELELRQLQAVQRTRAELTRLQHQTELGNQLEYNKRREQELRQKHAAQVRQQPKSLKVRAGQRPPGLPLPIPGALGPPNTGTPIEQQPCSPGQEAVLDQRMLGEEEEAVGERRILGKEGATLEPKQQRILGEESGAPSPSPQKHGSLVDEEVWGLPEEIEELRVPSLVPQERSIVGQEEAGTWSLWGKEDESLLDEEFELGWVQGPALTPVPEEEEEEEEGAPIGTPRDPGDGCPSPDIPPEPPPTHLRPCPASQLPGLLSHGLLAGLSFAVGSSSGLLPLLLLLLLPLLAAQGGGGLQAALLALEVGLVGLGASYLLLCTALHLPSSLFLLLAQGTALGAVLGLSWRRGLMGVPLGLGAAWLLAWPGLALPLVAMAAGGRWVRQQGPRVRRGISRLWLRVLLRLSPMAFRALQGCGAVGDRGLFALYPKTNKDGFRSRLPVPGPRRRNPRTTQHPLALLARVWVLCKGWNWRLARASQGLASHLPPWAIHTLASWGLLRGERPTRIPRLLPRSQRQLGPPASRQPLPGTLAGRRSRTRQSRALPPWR
Description: (§1) Additionally, a 10-dose dilution series of staurosporine and other enzyme-appropriate compounds were included as positive control inhibitors.

c-Kit = c-Kit (Homo sapiens, UniProt P10721); experiment: HotSpot kinase assay; conditions: read-out: % Enzyme Activity (relative to DMSO control), 10 uM
Description: as §1

SGK2 = SGK2 (Homo sapiens, UniProt Q9HBY8); experiment: HotSpot kinase assay; conditions: read-out: % Enzyme Activity (relative to DMSO control), 10 uM
Description: as §1

TIE2/TEK = TIE2/TEK (Homo sapiens, UniProt Q02763); experiment: HotSpot kinase assay; conditions: read-out: % Enzyme Activity (relative to DMSO control), 10 uM
Description: as §1

LIMK2 = LIMK2 (Homo sapiens, UniProt P53671); experiment: HotSpot kinase assay; conditions: read-out: % Enzyme Activity (relative to DMSO control), 10 uM
Description: as §1

DNA-PK = DNA-PK (Homo sapiens, UniProt P78527); experiment: HotSpot kinase assay; conditions: read-out: % Enzyme Activity (relative to DMSO control), 10 uM
Description: as §1

SIK2 = SIK2 (Homo sapiens, UniProt Q9H0K1); experiment: HotSpot kinase assay; conditions: read-out: % Enzyme Activity (relative to DMSO control), 10 uM
Sequence of SIK2 (Q9H0K1 whole entry): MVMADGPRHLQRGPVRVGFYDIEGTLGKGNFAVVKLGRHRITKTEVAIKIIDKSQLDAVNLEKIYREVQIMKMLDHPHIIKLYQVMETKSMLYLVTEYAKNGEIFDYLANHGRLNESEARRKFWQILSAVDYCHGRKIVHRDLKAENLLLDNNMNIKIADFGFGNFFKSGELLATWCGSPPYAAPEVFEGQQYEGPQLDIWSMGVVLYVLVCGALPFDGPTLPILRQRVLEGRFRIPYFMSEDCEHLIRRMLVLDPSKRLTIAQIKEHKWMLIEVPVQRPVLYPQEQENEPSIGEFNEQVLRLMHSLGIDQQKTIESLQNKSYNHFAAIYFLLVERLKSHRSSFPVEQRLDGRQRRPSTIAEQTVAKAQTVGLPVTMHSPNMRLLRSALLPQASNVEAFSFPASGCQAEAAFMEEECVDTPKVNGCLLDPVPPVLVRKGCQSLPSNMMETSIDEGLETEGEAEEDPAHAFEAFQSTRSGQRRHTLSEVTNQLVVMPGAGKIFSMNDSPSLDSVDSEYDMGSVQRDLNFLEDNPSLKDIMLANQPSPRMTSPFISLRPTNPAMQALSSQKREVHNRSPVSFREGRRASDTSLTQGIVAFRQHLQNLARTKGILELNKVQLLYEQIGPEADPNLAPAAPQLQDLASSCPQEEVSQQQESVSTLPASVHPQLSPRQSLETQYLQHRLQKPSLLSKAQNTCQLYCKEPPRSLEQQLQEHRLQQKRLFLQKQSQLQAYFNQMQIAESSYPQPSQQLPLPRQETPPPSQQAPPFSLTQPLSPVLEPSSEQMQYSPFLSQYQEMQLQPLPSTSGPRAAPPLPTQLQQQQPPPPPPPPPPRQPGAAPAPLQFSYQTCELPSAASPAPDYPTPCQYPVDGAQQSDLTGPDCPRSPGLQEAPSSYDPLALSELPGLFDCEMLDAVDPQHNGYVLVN
Description: as §1

PDK3/PDHK3 = PDK3/PDHK3 (Homo sapiens, UniProt Q15120); experiment: HotSpot kinase assay; conditions: read-out: % Enzyme Activity (relative to DMSO control), 10 uM
Description: as §1

CK1a1 = CK1a1 (Homo sapiens, UniProt P48729); experiment: HotSpot kinase assay; conditions: read-out: % Enzyme Activity (relative to DMSO control), 10 uM
Sequence of CK1a1 (P48729 whole entry): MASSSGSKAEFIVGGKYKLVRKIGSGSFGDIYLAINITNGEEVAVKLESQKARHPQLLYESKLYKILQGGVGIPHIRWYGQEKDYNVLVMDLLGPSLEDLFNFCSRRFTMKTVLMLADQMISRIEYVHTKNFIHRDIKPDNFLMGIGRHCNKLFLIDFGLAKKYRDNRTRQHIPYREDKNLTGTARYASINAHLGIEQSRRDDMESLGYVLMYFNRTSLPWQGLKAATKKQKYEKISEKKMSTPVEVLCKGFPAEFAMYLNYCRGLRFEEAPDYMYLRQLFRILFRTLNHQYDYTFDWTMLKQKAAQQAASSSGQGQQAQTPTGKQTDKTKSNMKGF
Description: as §1

TGFBR2 = TGFBR2 (Homo sapiens, UniProt P37173); experiment: HotSpot kinase assay; conditions: read-out: % Enzyme Activity (relative to DMSO control), 10 uM
Description: as §1

CDK3/cyclin E = CDK3/cyclin E (Homo sapiens, UniProt Q00526); experiment: HotSpot kinase assay; conditions: read-out: % Enzyme Activity (relative to DMSO control), 10 uM
Sequence of CDK3/cyclin E (Q00526 whole entry): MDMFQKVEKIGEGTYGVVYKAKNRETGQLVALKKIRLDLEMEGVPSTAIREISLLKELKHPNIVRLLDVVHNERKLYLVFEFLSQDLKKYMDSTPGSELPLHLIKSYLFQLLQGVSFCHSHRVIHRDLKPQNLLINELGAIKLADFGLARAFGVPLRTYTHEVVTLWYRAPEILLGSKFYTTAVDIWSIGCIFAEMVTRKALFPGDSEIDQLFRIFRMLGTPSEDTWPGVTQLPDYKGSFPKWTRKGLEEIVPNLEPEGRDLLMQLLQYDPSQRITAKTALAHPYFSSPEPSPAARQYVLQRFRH
Sequence of CDK3/cyclin E (P24864 whole entry, further chain): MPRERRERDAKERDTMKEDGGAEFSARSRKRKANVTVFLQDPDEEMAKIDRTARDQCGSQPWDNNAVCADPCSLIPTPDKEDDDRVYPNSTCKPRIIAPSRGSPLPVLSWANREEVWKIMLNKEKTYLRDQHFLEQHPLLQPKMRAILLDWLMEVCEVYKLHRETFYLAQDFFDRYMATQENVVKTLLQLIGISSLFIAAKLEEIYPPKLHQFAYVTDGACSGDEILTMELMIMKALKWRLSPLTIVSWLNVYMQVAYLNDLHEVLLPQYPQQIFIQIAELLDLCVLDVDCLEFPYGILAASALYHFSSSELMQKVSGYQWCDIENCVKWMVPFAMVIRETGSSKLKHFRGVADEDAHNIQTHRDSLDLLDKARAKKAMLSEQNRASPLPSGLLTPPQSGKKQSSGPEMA
Description: as §1

CK1g1 = CK1g1 (Homo sapiens, UniProt Q9HCP0); experiment: HotSpot kinase assay; conditions: read-out: % Enzyme Activity (relative to DMSO control), 10 uM
Description: as §1

CAMKK2 = CAMKK2 (Homo sapiens, UniProt Q96RR4); experiment: HotSpot kinase assay; conditions: read-out: % Enzyme Activity (relative to DMSO control), 10 uM
Sequence of CAMKK2 (Q96RR4 whole entry): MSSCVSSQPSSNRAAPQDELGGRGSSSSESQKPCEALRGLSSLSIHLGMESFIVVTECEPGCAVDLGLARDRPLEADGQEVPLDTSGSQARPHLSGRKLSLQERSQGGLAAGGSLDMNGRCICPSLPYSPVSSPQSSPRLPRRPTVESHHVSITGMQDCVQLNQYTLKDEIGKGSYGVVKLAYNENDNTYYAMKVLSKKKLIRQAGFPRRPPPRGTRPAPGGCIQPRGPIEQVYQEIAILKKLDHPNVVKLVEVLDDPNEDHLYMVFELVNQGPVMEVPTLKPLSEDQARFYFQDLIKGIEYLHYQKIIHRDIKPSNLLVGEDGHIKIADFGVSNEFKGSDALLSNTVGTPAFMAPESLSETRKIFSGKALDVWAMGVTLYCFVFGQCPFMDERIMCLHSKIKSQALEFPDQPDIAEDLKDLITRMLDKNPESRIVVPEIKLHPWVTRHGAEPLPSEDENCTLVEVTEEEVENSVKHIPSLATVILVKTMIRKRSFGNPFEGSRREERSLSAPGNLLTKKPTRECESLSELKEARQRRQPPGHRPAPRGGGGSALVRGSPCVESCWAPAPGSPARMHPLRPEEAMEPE
Description: as §1

EPHB2 = EPHB2 (Homo sapiens, UniProt P29323); experiment: HotSpot kinase assay; conditions: read-out: % Enzyme Activity (relative to DMSO control), 10 uM
Description: as §1

ALK3/BMPR1A = ALK3/BMPR1A (Homo sapiens, UniProt P36894); experiment: HotSpot kinase assay; conditions: read-out: % Enzyme Activity (relative to DMSO control), 10 uM
Description: as §1

MUSK = MUSK (Homo sapiens, UniProt O15146); experiment: HotSpot kinase assay; conditions: read-out: % Enzyme Activity (relative to DMSO control), 10 uM
Sequence of MUSK (O15146 24-869): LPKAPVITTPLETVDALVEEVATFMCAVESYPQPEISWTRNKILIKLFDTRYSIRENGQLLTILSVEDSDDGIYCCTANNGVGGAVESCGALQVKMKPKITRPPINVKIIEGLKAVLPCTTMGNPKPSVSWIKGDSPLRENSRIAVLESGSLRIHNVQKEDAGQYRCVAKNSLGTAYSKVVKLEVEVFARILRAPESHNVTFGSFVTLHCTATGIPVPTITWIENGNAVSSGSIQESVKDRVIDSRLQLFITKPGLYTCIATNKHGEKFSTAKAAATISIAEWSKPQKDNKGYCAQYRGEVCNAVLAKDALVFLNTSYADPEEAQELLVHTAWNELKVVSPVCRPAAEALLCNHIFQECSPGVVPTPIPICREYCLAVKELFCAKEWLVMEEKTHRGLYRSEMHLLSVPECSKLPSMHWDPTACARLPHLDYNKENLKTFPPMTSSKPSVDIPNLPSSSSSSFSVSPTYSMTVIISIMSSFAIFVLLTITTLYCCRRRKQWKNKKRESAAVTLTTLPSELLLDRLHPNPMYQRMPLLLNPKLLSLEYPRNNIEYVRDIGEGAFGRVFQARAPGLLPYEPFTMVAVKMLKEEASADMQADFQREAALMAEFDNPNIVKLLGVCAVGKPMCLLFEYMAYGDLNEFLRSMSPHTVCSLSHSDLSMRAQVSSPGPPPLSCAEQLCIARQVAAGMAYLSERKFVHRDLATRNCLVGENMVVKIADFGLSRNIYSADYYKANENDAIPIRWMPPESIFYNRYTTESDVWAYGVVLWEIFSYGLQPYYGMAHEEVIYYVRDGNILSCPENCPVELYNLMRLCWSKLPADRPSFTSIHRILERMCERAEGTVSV
Description: as §1

CDK1/cyclin A = CDK1/cyclin A (Homo sapiens, UniProt P06493); experiment: HotSpot kinase assay; conditions: read-out: % Enzyme Activity (relative to DMSO control), 10 uM
Sequence of CDK1/cyclin A (P20248 whole entry): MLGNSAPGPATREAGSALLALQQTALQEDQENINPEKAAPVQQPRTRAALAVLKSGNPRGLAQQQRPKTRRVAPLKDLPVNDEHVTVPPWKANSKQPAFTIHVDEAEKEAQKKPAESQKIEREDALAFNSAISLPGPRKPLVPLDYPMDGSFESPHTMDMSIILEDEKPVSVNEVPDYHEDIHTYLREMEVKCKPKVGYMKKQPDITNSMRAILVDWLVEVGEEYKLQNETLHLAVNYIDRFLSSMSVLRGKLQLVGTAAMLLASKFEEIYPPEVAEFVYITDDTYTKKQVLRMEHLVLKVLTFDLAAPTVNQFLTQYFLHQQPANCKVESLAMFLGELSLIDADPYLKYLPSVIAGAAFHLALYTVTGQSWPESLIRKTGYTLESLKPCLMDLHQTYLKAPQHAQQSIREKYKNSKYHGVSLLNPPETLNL
Sequence of CDK1/cyclin A (P06493 whole entry): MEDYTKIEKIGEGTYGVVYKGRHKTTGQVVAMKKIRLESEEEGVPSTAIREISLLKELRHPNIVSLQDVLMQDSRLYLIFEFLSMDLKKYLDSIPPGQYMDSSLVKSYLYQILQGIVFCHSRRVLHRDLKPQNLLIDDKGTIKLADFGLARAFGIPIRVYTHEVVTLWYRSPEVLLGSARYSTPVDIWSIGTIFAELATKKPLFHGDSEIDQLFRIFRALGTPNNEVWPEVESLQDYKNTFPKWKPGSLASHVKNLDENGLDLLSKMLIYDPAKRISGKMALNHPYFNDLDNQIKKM
Description: as §1

MARK4 = MARK4 (Homo sapiens, UniProt Q96L34); experiment: HotSpot kinase assay; conditions: read-out: % Enzyme Activity (relative to DMSO control), 10 uM
Description: as §1

MAPKAPK3 = MAPKAPK3 (Homo sapiens, UniProt Q16644); experiment: HotSpot kinase assay; conditions: read-out: % Enzyme Activity (relative to DMSO control), 10 uM
Description: as §1

SRPK1 = SRPK1 (Homo sapiens, UniProt Q96SB4); experiment: HotSpot kinase assay; conditions: read-out: % Enzyme Activity (relative to DMSO control), 10 uM
Sequence of SRPK1 (Q96SB4 whole entry): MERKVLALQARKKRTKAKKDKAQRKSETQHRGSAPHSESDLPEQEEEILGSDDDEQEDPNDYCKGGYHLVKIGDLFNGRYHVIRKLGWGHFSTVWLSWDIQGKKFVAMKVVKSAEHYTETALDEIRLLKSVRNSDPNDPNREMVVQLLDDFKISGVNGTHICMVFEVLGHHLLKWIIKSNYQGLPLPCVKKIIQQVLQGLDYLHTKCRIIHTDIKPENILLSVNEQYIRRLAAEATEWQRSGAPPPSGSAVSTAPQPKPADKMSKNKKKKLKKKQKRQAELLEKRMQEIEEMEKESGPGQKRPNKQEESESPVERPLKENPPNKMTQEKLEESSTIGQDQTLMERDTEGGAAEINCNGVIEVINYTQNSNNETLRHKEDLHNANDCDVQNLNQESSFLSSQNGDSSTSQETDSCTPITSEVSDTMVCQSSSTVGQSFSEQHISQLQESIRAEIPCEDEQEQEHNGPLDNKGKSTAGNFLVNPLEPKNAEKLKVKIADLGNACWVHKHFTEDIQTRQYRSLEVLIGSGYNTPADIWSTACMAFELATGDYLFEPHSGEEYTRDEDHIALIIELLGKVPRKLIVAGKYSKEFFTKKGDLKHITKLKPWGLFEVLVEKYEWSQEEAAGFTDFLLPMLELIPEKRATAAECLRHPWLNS
Description: as §1

PKA = PKA (Homo sapiens, UniProt P17612); experiment: HotSpot kinase assay; conditions: read-out: % Enzyme Activity (relative to DMSO control), 10 uM
Description: as §1

[1] = system: HEK-293 cells stably overexpressing ALPK1; experiment: Supernatant CXCL8 ELISA; conditions: ALPK1 OE
Protocol: In (a) each dot represents a single well measurement. […] Each dot represents the mean of duplicate technical repeats. c NF-κB reporter cells were transiently transfected with plasmids to overexpress human ALPK1 or ALPK1[T237M]. […] Supernatant CXCL8 levels were then measured by ELISA. In c−f data represent the mean ± SEM for the triplicate wells of each treatment group. Statistical outliers were determined using Grubb’s test and indicated in the Source Data file. In (d) statistical comparisons to the wild-type ALPK1-overexpressing stable cell line group were made using the two-tailed unpaired Student’s t-tests. In (b−f) curve fitting and IC50 value calculations were performed with GraphPad Prism 6.
To obtain HEK-293 cells stably overexpressing ALPK1 or ALPK1[T237M], codon-optimized DNA coding sequencing for Flag-tagged human ALPK1 and ALPK1[T237M] were inserted into the pcDNA3.1 vector. Plasmids were transfected into HEK-293 cells using Lipofectamine 2000 as per the manufacturer’s protocol. At 48 h post-transfection, G418 (#A1720, Sigma-Aldrich, St. Louis, MO, USA) was used to select resistant transformed cells, and single-cell clones were prepared through a limiting dilution-based approach. Western blotting (See Below) was used to assess Flag-tagged ALPK1 and ALPK1[T237M] overexpression. […] Cells were then harvested to analyze the expression of CXCL10, TNF, and CXCL8 by qPCR (See Below).

Structure (SMILES): C#C[C@@](C)(c1ccc(Cl)cc1)c1csc(NC(=O)c2c(F)cc(N3CCNCC3)cc2F)n1 (stereo in doubt) [DF-003]
- IC50 (TAOK2/TAO1; DF-003 IC50 (nM), 10-dose): 1290 nM
- IC50 (TAOK2/TAO1; IC50, 10-dose): 1290 nM
- remaining activity at 10 µM (TAOK2/TAO1; read-out: % Enzyme Activity (relative to DMSO control), 10 uM): 5.89%
- remaining activity at 10 µM (c-Kit): 67.6%
- remaining activity at 10 µM (SGK2): 77.6%
- remaining activity at 10 µM (TIE2/TEK): 79.5%
- remaining activity at 10 µM (LIMK2): 85.2%
- remaining activity at 10 µM (DNA-PK): 85.3%
- remaining activity at 10 µM (SIK2): 88.5%
- remaining activity at 10 µM (PDK3/PDHK3): 89.9%
- remaining activity at 10 µM (CK1a1): 90.5%
- remaining activity at 10 µM (TGFBR2): 91.5%
- remaining activity at 10 µM (CDK3/cyclin E): 94.6%
- remaining activity at 10 µM (CK1g1): 95%
- remaining activity at 10 µM (CAMKK2): 98.9%
- remaining activity at 10 µM (EPHB2): 101%
- remaining activity at 10 µM (ALK3/BMPR1A): 103%
- remaining activity at 10 µM (MUSK): 105%
- remaining activity at 10 µM (CDK1/cyclin A): 109%
- remaining activity at 10 µM (MARK4): 110%
- remaining activity at 10 µM (MAPKAPK3): 112%
- remaining activity at 10 µM (SRPK1): 125%
- remaining activity at 10 µM (PKA): 195%
- Supernatant CXCL8 level (ELISA) ([1]; Log [DF-003 (nM)] 0.3035): 652.652 and 657.101 and 652.360
- Supernatant CXCL8 level (ELISA) ([1]; Log [DF-003 (nM)] 0.8032): 717.775 and 649.393 and 582.315
- Supernatant CXCL8 level (ELISA) ([1]; Log [DF-003 (nM)] 1.3029): 735.124 and 626.517 and 638.135
- Supernatant CXCL8 level (ELISA) ([1]; Log [DF-003 (nM)] 2.8020): 0.000
- Supernatant CXCL8 level (ELISA) ([1]; Log [DF-003 (nM)] 3.3017): 0.000
- Supernatant CXCL8 level (ELISA) ([1]; Log [DF-003 (nM)] 3.8013): 0.000
- Supernatant CXCL8 level (ELISA) ([1]; Log [DF-003 (nM)] -0.1962): 619.393 and 689.438 and 663.124
